Test results from ChEMBL document CHEMBL3994619, “Inhibition of invasion by N-trans-feruloyloctopamine via AKT, p38MAPK and EMT related signals in hepatocellular carcinoma cells” (Bioorg Med Chem Lett, 2017).
Activity calls are given as the source filed them. No cut-off for these calls is given here.

What was measured:
[1] = tested on: HCCLM3; assay: Antiproliferative activity against human HCCLM3 cells assessed as reduction in cell viability after 48 hrs by CCK8 assay; assay type: functional, cell-based; conditions: HCCLM3, 48 h
[2] = tested on: Huh-7; assay: Antiproliferative activity against human HuH7 cells assessed as reduction in cell viability after 48 hrs by CCK8 assay; assay type: functional, cell-based; conditions: Huh-7, 48 h
[3] = organism: Homo sapiens; assay: Reduction in Akt phosphorylation in human HCCLM3 cells at 2 mM after 48 hrs by western blot analysis; assay type: cell-based
[4] = molecular target: T1, MAP kinase p38 (Homo sapiens) (UniProt O15264+Q15759+Q16539+P53778); assay: Reduction in p38 phosphorylation in human HuH7 cells at 2 mM after 48 hrs by western blot analysis; assay type: cell-based
[5] = tested on: HCCLM3; assay: Downregulation of slug in human HCCLM3 cells at 2 mM after 48 hrs by western blot analysis; assay type: functional, cell-based
[6] = tested on: HCCLM3; assay: Upregulation of E-cadherin in human HCCLM3 cells after 48 hrs by western blot analysis; assay type: functional, cell-based
[7] = tested on: HCCLM3; assay: Anti-invasive activity in human HCCLM3 cells assessed as invasive cell count at 2 mM after 48 hrs using Giemsa dye by matrigel based microscopic method (reference value: 64.7 +/- 9.3); assay type: functional
[8] = molecular target: Mitogen-activated protein kinase; ERK1/ERK2 (Homo sapiens) (UniProt P27361+P28482); assay: Effect on ERK1/2 phosphorylation in human HCCLM3 cells at 2 mM after 48 hrs by western blot analysis; assay type: cell-based
[9] = tested on: Huh-7; assay: Antimigratory activity in human HuH7 cells assessed as wound closure at 2 mM after 48 hrs by inverted microscopic method; assay type: functional, cell-based
[10] = molecular target: Transcription factor p65 (Homo sapiens) (UniProt Q04206); assay: Effect on p65 phosphorylation in human HCCLM3 cells at 2 mM after 48 hrs by western blot analysis; assay type: cell-based
[11] = molecular target: T1, MAP kinase p38 (Homo sapiens); assay: Reduction in p38 phosphorylation in human HCCLM3 cells at 2 mM after 48 hrs by western blot analysis; assay type: cell-based
[12] = organism: Homo sapiens; assay: Reduction in Akt phosphorylation in human HuH7 cells at 2 mM after 48 hrs by western blot analysis; assay type: cell-based
[13] = tested on: Huh-7; assay: Anti-invasive activity in human HuH7 cells assessed as invasive cell count at 2 mM after 48 hrs using Giemsa dye by matrigel based microscopic method (reference value: 36 +/- 6); assay type: functional
[14] = tested on: HCCLM3; assay: Antimigratory activity in human HCCLM3 cells assessed as wound closure at 2 mM after 48 hrs by inverted microscopic method; assay type: functional, cell-based
[15] = tested on: HCCLM3; assay: Cytotoxicity against human HCCLM3 cells after 48 hrs by CCK8 assay; assay type: cell-based; conditions: hcclm3, 48 h

Chain of Transcription factor p65 (Homo sapiens) (Q04206 whole entry): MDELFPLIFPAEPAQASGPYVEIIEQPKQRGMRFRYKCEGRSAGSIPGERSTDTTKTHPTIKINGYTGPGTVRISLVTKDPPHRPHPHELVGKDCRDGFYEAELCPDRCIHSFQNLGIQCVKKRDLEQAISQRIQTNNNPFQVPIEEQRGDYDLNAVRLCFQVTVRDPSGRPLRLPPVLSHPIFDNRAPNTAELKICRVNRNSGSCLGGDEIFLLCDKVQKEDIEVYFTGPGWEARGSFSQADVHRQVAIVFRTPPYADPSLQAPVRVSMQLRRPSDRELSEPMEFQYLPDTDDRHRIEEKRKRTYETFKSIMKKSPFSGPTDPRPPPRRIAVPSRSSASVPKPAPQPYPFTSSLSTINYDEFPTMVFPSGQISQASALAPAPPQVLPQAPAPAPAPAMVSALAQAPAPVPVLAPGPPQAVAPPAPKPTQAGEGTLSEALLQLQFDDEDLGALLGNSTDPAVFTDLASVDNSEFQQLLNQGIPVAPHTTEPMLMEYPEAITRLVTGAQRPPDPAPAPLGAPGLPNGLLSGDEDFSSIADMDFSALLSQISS
Chain of Mitogen-activated protein kinase; ERK1/ERK2 (Homo sapiens) (P27361 whole entry, looked up): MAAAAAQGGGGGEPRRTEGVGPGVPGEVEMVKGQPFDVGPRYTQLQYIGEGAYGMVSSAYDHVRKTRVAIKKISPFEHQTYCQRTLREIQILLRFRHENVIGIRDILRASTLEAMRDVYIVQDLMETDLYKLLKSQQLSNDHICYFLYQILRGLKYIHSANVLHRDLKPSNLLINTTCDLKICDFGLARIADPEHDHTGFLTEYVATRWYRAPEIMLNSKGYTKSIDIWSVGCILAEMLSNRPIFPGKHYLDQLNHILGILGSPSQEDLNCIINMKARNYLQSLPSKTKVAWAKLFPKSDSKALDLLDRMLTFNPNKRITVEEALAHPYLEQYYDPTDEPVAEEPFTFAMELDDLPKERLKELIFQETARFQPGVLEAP
Chain of Mitogen-activated protein kinase; ERK1/ERK2 (Homo sapiens) (P28482 whole entry, looked up): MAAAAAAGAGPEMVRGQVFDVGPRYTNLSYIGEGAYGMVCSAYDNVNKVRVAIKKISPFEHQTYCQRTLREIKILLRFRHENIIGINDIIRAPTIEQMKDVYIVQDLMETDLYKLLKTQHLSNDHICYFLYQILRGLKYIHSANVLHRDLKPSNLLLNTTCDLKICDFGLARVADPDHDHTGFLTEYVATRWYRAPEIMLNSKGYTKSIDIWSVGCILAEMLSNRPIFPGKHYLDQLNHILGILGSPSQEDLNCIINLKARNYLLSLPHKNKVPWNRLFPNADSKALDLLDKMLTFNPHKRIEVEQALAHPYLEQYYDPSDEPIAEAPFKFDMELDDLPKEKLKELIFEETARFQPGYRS

| Structure (SMILES) | IC50 [1] [mM] | IC50 [2] [mM] | Activity [3] | Activity [4] | Activity [5] | Activity [6] | Activity [7] | Activity [8] | Activity [9] | Activity [10] | Activity [11] | Activity [12] | Activity [13] | Activity [14] | Activity [15] |
| --- | --- | --- | --- | --- | --- | --- | --- | --- | --- | --- | --- | --- | --- | --- | --- |
| O=c1[nH]cc(F)c(=O)[nH]1 [FLUOROURACIL] | 1.84 | 2.98 |  |  |  |  |  |  |  |  |  |  |  |  |  |
| COc1cc(/C=C/C(=O)NCC(O)c2ccc(O)cc2)ccc1O (configuration not stated) | 2.27 | 1.99 | Active | Active | Active | Active | 23.3 | inactive | inactive | inactive | Active | Active | 11.7 | inactive | Non-Toxic |
